{"source": "patent US5904929A", "about": "“Acylated cyclodextrin-containing pharmaceutical composition” (Janssen Pharmaceutica, N.V., priority 1997, dated 1999)", "key": {"[1]": {"assay": "Detaching force of films, probe tack tester (Example 1)", "format": "physicochemical", "settings": "films on polyethylene terephthalate; compared with HPC, HPMC and PHEMA; probe tack tester (FIG. 1)", "procedure": "Pervaleryl-β-cyclodextrin (TV-β-CyD)-containing absolute ethanol solution (concentration: 150 mg/ml) was added dropwise onto a backing membrane (polyethylene terephthalate film) using a microsyringe, and allowed to stand at 25° C. for 24 hours to evaporate ethanol, whereby films of TV-β-CyD having adhesion were obtained.\nThe detaching force on the films of TV-β-CyD and on the films derived from various hydrophilic macromolecules (hydroxypropylcellulose (HPC), hydroxypropyl methylcellulose (HPMC) and polyhydroxyethyl methacrylate (PHEMA)) was measured using a probe tack tester (produced by Rigaku Kogyo Co.). The films of hydrophilic macromolecules were prepared as described with respect to TV-β-CyD."}, "[2]": {"tested_on": "cutis of the back of female hairless mice", "assay": "Cutis irritativeness, histology of back skin of hairless mice (Example 2)", "format": "in vivo", "settings": "16 hours, light microscopy", "procedure": "There was stuck 150 mg of TV-β-CyD, in the shape of a circle with a diameter of […], on the back of female hairless mice at the age of around 7 weeks (weight: […]), and 16 hours later, the cutis was extirpated. The extirpated cutis was fixed with 20% neutrally-buffered formalin solution and embedded in paraffin according to a usual manner, and tissue sections were prepared using a microtome. These sections were double stained with haematoxylin and Eosine, and observed by a light microscope. Untreated cutis was used as control. Moreover, a commercially available adhesive tape for patch test was applied on the same mice under the same condition, and, thereafter, the cutis tissue of the applied portion was extirpated for comparison."}, "[3]": {"settings": "J. Pharm. Pharmacol. 1994, 46: 714-717; cited from earlier work"}}, "data": [{"smiles": "CCCCC(=O)OC[C@H]1O[C@@H]2O[C@H]3[C@H](OC(=O)CCCC)[C@@H](OC(=O)CCCC)[C@@H](O[C@H]4[C@H](OC(=O)CCCC)[C@@H](OC(=O)CCCC)[C@@H](O[C@H]5[C@H](OC(=O)CCCC)[C@@H](OC(=O)CCCC)[C@@H](O[C@H]6[C@H](OC(=O)CCCC)[C@@H](OC(=O)CCCC)[C@@H](O[C@H]7[C@H](OC(=O)CCCC)[C@@H](OC(=O)CCCC)[C@@H](O[C@H]8[C@H](OC(=O)CCCC)[C@@H](OC(=O)CCCC)[C@@H](O[C@H]1[C@H](OC(=O)CCCC)[C@H]2OC(=O)CCCC)O[C@@H]8COC(=O)CCCC)O[C@@H]7COC(=O)CCCC)O[C@@H]6COC(=O)CCCC)O[C@@H]5COC(=O)CCCC)O[C@@H]4COC(=O)CCCC)O[C@@H]3COC(=O)CCCC", "note": "[TV-β-CyD, Pervaleryl-β-cyclodextrin]", "values": [{"measurement": "adhesion (detaching force), in comparison with hydrophilic macromolecules", "setting": "[1]", "result": "strongest in adhesion"}, {"measurement": "peeling of corneum", "setting": "[2]; 150 mg, compared with commercially available adhesive tape for patch test", "result": "peeling of corneum in the same degree as in the case of the commercially available adhesive tape"}, {"measurement": "abnormality such as inflammatory cellular infiltration", "setting": "[2]; other sites (control)", "result": "no abnormality such as inflammatory cellular infiltration"}]}, {"smiles": "CCCC(=O)OC[C@H]1O[C@@H]2O[C@H]3[C@H](OC(=O)CCC)[C@@H](OC(=O)CCC)[C@@H](O[C@H]4[C@H](OC(=O)CCC)[C@@H](OC(=O)CCC)[C@@H](O[C@H]5[C@H](OC(=O)CCC)[C@@H](OC(=O)CCC)[C@@H](O[C@H]6[C@H](OC(=O)CCC)[C@@H](OC(=O)CCC)[C@@H](O[C@H]7[C@H](OC(=O)CCC)[C@@H](OC(=O)CCC)[C@@H](O[C@H]8[C@H](OC(=O)CCC)[C@@H](OC(=O)CCC)[C@@H](O[C@H]1[C@H](OC(=O)CCC)[C@H]2OC(=O)CCC)O[C@@H]8COC(=O)CCC)O[C@@H]7COC(=O)CCC)O[C@@H]6COC(=O)CCC)O[C@@H]5COC(=O)CCC)O[C@@H]4COC(=O)CCC)O[C@@H]3COC(=O)CCC", "note": "[TB-β-CyD, perbutanoyl-β-cyclodextrin]", "values": [{"measurement": "drug release rate, compared with other acylated β-CyDs", "setting": "[3]", "result": "remarkably retards the drug release rate"}]}]}
